From the supplement of paper PMC9013687

Assays:
[1] = test system: Danio rerio embryo; conditions: exposure time: 4 dpf
Description: (§1)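 Zebrafish embryos (UFZ-OBI strain) were exposed from 2 hpf for 48 h (2 dpf) or 96 h (4 dpf) at 28 °C; spontaneous tail coiling was scored at 25 hpf. Morphological features from automated image analysis (FishInspector), heart rate and locomotor response were fitted with drc models. Quantal endpoints were dichotomised at 2.5 SD from controls and fitted with a log-logistic model; heart rate, pigmentation and STC were normalised to the replicate control mean. Betamethasone was tested as betamethasone dipropionate, diflorasone as diflorasone diacetate.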

[2] = test system: Danio rerio embryo
Description: as §1

[3] = test system: Danio rerio embryo; assay: EC10 Heart rate; higher = less potent
Description: as §1

[4] = test system: Danio rerio embryo; assay: EC20 STC bell shape; higher = less potent; conditions: exposure time: 25 h
Description: as §1

[5] = test system: Danio rerio embryo; assay: EC20 Lack of SB; higher = less potent; conditions: exposure time: 4 dpf
Description: as §1

[6] = test system: Danio rerio embryo; assay: EC10 Eye size_Decrease; higher = less potent
Description: as §1

[7] = test system: Danio rerio embryo; assay: EC20 Heart rate; higher = less potent
Description: as §1

[8] = test system: Danio rerio embryo; assay: EC20 Pigmentation decrease; higher = less potent
Description: as §1

[9] = test system: Danio rerio embryo; assay: EC10 Pigmentation decrease; higher = less potent
Description: as §1

[10] = test system: Danio rerio embryo; assay: EC50 Eye size_Decrease
Description: as §1

[11] = test system: Danio rerio embryo; assay: EC10 STC bell shape; higher = less potent; conditions: exposure time: 25 h
Description: as §1

[12] = test system: Danio rerio embryo; assay: EC10 Lack of SB; higher = less potent; conditions: exposure time: 4 dpf
Description: as §1

[13] = test system: Danio rerio embryo; assay: EC10 LMR ligth decrease; higher = less potent; conditions: exposure time: 4 dpf
Description: as §1

[14] = test system: Danio rerio embryo; assay: EC50 Head trunk angle_Decrease; conditions: exposure time: 2 dpf
Description: as §1

[15] = test system: Danio rerio embryo; assay: EC20 LMR ligth decrease; higher = less potent; conditions: exposure time: 4 dpf
Description: as §1

[16] = test system: Danio rerio embryo; assay: EC10 STC increase; higher = less potent; conditions: exposure time: 25 h
Description: as §1

[17] = test system: Danio rerio embryo; assay: EC10 Head trunk angle_Decrease; higher = less potent; conditions: exposure time: 2 dpf
Description: as §1

[18] = test system: Danio rerio embryo; assay: EC10 Mandibular arch distance_Decrease; higher = less potent; conditions: exposure time: 4 dpf
Description: as §1

[19] = test system: Danio rerio embryo; assay: EC10 Pigmentation increase; higher = less potent; conditions: exposure time: 4 dpf
Description: as §1

[20] = test system: Danio rerio embryo; assay: EC20 Mandibular arch distance_Decrease; higher = less potent; conditions: exposure time: 4 dpf
Description: as §1

[21] = test system: Danio rerio embryo; assay: EC20 Head trunk angle_Decrease; higher = less potent; conditions: exposure time: 2 dpf
Description: as §1

[22] = test system: Danio rerio embryo; assay: EC50 Head size_Decrease
Description: as §1

[23] = test system: Danio rerio embryo; assay: EC50 Mandibular arch distance_Decrease; conditions: exposure time: 4 dpf
Description: as §1

[24] = test system: Danio rerio embryo; assay: EC20 Head size_Decrease; higher = less potent
Description: as §1

[25] = test system: Danio rerio embryo; remark: listed apart in the source
Description: as §1

[26] = test system: Danio rerio embryo; assay: EC20 Pigmentation increase; higher = less potent; conditions: exposure time: 4 dpf
Description: as §1

[27] = test system: Danio rerio embryo; assay: EC20 STC increase; higher = less potent; conditions: exposure time: 25 h
Description: as §1

[28] = test system: Danio rerio embryo; assay: EC10 Head-trunk angle_Decrease; higher = less potent; conditions: exposure time: 2 dpf
Description: as §1

[29] = test system: Danio rerio embryo; assay: EC20 STC decrease; higher = less potent; conditions: exposure time: 25 h
Description: as §1

[30] = test system: Danio rerio embryo; assay: EC10 STC decrease; higher = less potent; conditions: exposure time: 25 h
Description: as §1

[31] = test system: Danio rerio embryo; assay: EC50 Head-trunk angle_Decrease; conditions: exposure time: 2 dpf
Description: as §1

[32] = test system: Danio rerio embryo; assay: EC20 Head-trunk angle_Decrease; higher = less potent; conditions: exposure time: 2 dpf
Description: as §1

| Compound | EC50 Lack of SB [1] [µM] | EC10 Heart rate ([3]; exposure time: 2 dpf) [µM] | EC10 Heart rate ([3]; exposure time: 4 dpf) [µM] | EC20 Lack of SB [5] [µM] | EC10 Eye size Decrease ([6]; exposure time: 4 dpf) [µM] | EC20 Heart rate ([7]; exposure time: 2 dpf) [µM] | EC20 Heart rate ([7]; exposure time: 4 dpf) [µM] | EC20 Pigmentation decrease ([8]; exposure time: 2 dpf) [µM] | EC10 Pigmentation decrease ([9]; exposure time: 2 dpf) [µM] | EC50 Eye size Decrease ([10]; exposure time: 4 dpf) [µM] | EC10 Lack of SB [12] [µM] | EC50 Head trunk angle Decrease [14] [µM] | EC10 Head trunk angle Decrease [17] [µM] | EC10 Mandibular arch distance Decrease [18] [µM] | EC10 Eye size Decrease ([6]; exposure time: 2 dpf) [µM] | EC20 Mandibular arch distance Decrease [20] [µM] | EC20 Head trunk angle Decrease [21] [µM] | EC50 Head size Decrease ([22]; exposure time: 2 dpf) [µM] | EC20 Head size Decrease ([24]; exposure time: 2 dpf) [µM] | EC50 Eye size Decrease ([10]; exposure time: 2 dpf) [µM] | other results |
| --- | --- | --- | --- | --- | --- | --- | --- | --- | --- | --- | --- | --- | --- | --- | --- | --- | --- | --- | --- | --- | --- |
| Cc1ccc(-c2cc(C(F)(F)F)nn2-c2ccc(S(N)(=O)=O)cc2)cc1 [Celecoxib] | 9.14 | 10.3 | 2.25 | 8.45 | 9.06 | 16.1 | 4.72 | 27.1 | 23.7 | 13.4 | 8.08 | – | – | – | – | – | – | – | – | – | EC50 Pigmentation decrease ([2]; exposure time: 2 dpf): 34 µM; EC20 STC bell shape [4]: 23.8 µM; EC10 STC bell shape [11]: 20.4 µM |
| CC(C)(C)C(O)/C(=C/c1ccc(Cl)cc1Cl)n1cncn1 (stereo not given) [Diniconazole] | – | 4.6 | 5.23 | – | 2.97 | 6.61 | 7 | 7.3 | 6.17 | 5.05 | – | 4.5 | 2.62 | 1.96 | 6.22 | 3.04 | 3.2 | 5.99 | 4.37 | 7.85 | EC10 LMR ligth decrease [13]: 0.478 µM; EC20 LMR ligth decrease [15]: 0.855 µM; EC10 STC increase [16]: 6.86 µM; EC10 Pigmentation increase [19]: 2.49 µM; EC50 Mandibular arch distance Decrease [23]: 6.4 µM; EC50 Heart rate ([25]; exposure time: 4 dpf): 11.3 µM; EC20 Pigmentation increase [26]: 4.99 µM; EC20 STC increase [27]: 7.82 µM |
| C[Si](Cn1cncn1)(c1ccc(F)cc1)c1ccc(F)cc1 [Flusilazole] | 2.78 | 16 | 4.6 | 1.99 | 4.51 | 26.2 | 7.13 | – | – | 5.51 | 1.64 | – | – | 6.12 | 21.5 | 7.71 | – | 30.1 | 28.8 | 22.3 | EC50 Pigmentation decrease ([2]; exposure time: 4 dpf): 22.2 µM; EC10 Head-trunk angle Decrease [28]: 4.35 µM; EC20 STC decrease [29]: 4.11 µM; EC10 STC decrease [30]: 2.72 µM; EC50 Head-trunk angle Decrease [31]: 11.8 µM; EC50 Mandibular arch distance Decrease [23]: 11.4 µM; EC20 Pigmentation decrease ([8]; exposure time: 4 dpf): 7.16 µM; EC10 Pigmentation decrease ([9]; exposure time: 4 dpf): 3.38 µM; EC20 Head-trunk angle Decrease [32]: 6.28 µM |
| CCCCC(O)(Cn1cncn1)c1ccc(Cl)cc1Cl (stereo not given) [Hexaconazole] | 10.3 | 8.31 | 5.53 | 7.52 | 10.7 | 14.8 | 11.1 | 19.4 | 17.8 | 15.1 | 6.28 | 23.3 | 12.8 | 19.8 | 44.9 | 24.9 | 16 | 54.3 | 40.3 | 56.1 | EC50 Pigmentation decrease ([2]; exposure time: 2 dpf): 22.6 µM; EC20 STC bell shape [4]: 19.2 µM; EC50 Mandibular arch distance Decrease [23]: 37.1 µM; EC10 STC bell shape [11]: 17.5 µM; EC50 Heart rate ([25]; exposure time: 2 dpf): 39.8 µM |
| CCOC(=O)N1CCC(=C2c3ccc(Cl)cc3CCc3cccnc32)CC1 [Loratadine] | 0.282 | 1.01 | 1.1 | 0.202 | 5.5 | 2.72 | 2.18 | – | – | 6.82 | 0.167 | 7.05 | 4.17 | – | 5.86 | – | 5.06 | 12.7 | 4.61 | 8.45 | EC50 Pigmentation decrease ([2]; exposure time: 4 dpf): 9.57 µM; EC20 STC decrease [29]: 4.66 µM; EC10 STC decrease [30]: 3.8 µM; EC50 Head size Decrease ([22]; exposure time: 4 dpf): 14.1 µM; EC20 Pigmentation decrease ([8]; exposure time: 4 dpf): 8.62 µM; EC10 Pigmentation decrease ([9]; exposure time: 4 dpf): 8.11 µM; EC20 Head size Decrease ([24]; exposure time: 4 dpf): 8.95 µM; EC50 Heart rate ([25]; exposure time: 2 dpf): 14.8 µM; EC50 Heart rate ([25]; exposure time: 4 dpf): 7.03 µM |
| CN(Cc1cnc2nc(N)nc(N)c2n1)c1ccc(C(=O)N[C@@H](CCC(=O)O)C(=O)O)cc1 [Methotrexate] | 108 | – | – | 91 | 96.2 | – | – | 235 | 185 | 162 | 82.2 | 252 | 148 | – | – | – | 180 | – | – | – | EC10 LMR ligth decrease [13]: 32.5 µM; EC20 LMR ligth decrease [15]: 53.8 µM |
